Experimental findings from patent publication US12398140B2, “Substituted pyrrolo [2,3-d]pyrimidines for treating familial dysautonomia” (PTC THERAPEUTICS, INC., priority 2019, dated 2025) are described below.

Where a name gives a salt, the structure may show the parent alone.

The test system of the assay is Elongator complex protein 1 (ELPI, also referred to as IKBKAP). In words: IKBKAP-HTRF assay (IKBKAP protein in lysates of FD patient-derived fibroblasts). It is filed as cell-based, human. Conditions: FD patient-derived fibroblasts GM04589, 48 hours, 7-point concentration curve. As to the method:
The assay is used for the quantitative determination of Elongator complex protein 1 (ELPI, also referred to as IKBKAP) concentration in cell lysates using the HTRF® (Homogeneous Time-Resolved Fluorescence) technology. IKBKAP is detected in a sandwich HTRF assay by use of an anti-IKAP antibody labeled with a donor and an anti-IKAP antibody labeled with an acceptor.
Cells were thawed and incubated in DMEM-10% FBS for 72 hours. Cells were trypsinized, counted, and re-suspended to a concentration of 50,000 cells/ml in DMEM-10% FBS. A 199 μL aliquot of the cell suspensions were plated at 10,000 cells per well in a 96 well microtiter plate and incubated for 3 to 5 hours. […] Test compounds were serially diluted 3.16-fold in 100% DMSO to generate a 7-point concentration curve. A 1 μL aliquot of 200× compound solution was transferred to cell-containing wells, and cells were incubated for 48 hours in a cell culture incubator (37° C., 5% CO2, 100% relative humidity). Triplicate samples were set up for each compound concentration. After 48 hours, the supernatant was removed from the cells and 50 μL of the 1×LB4 lysis buffer, containing protease inhibitors, was added to the cells and incubated with shaking at room temperature for 1 hour. A 36 μL aliquot of this lysate was subsequently transferred to the 384-well plate containing 4 μL of the antibody solution (1:50 dilution of anti IKAP d2 and anti-IKAP K(9+8) in detection buffer). The 384-well plate was then centrifuged for 1 minute to bring the solutions to the bottom of the plate and incubated overnight at 4° C. Fluorescence for each well of the plate at 665 nm and 620 nm was measured was on the EnVision plate reader (Perkin Elmer). The ΔF for each sample is calculated by:
[formula] wherein Signal is the normalized fluorescence for each sample well and Blank is the average normalized average fluorescence for the Blank control wells.
The maximum fold increase (MFI) in IKBKAP protein abundance for compounds of Formula (I) or a form thereof relative to the vehicle control are provided in Table 1. MFI was calculated by dividing the ΔF value for each sample well by the sample ΔF for the vehicle control wells.
The EC2x for IKBKAP protein expression obtained from the 7-point concentration curve generated for each test compound according to the protocol in Biological Example 1 are also provided in Table 1. The term “EC2x for IKBKAP protein expression” is defined as the concentration of test compound that is effective in producing two times the amount of IKBKAP protein in a FD patient cell compared to the amount produced from the DMSO vehicle control.
A general note: TR-FRET usually uses a lanthanide donor and a delayed reading to cut background.
In the case of `CNCCc1[nH]c2nc(Cl)nc(NCc3ccco3)c2c1Br` [Cpd 18, 5-bromo-2-chloro-N-(furan-2-yl)methyl]-6-[2-(methylamino)ethyl]-7H-pyrrolo[2,3-d]pyrimidin-4-amine hydrochloride], the “EC2x for IKBKAP protein expression (concentration producing two times the amount of IKBKAP protein vs DMSO vehicle control)” value is “*** (between >0.02 μM and ≤0.5 μM is indicated by three stars (***))”; the “MFI (maximum fold increase in IKBKAP protein abundance relative to the vehicle control)” value was “**** (between >3.9 and ≤4.9 is indicated by four stars (****))”.
As to `C[C@H](N)Cc1[nH]c2nc(Cl)nc(NCc3ccco3)c2c1Br.Cl` [Cpd 19, 6-[(2S)-2-aminopropyl]-5-bromo-2-chloro-N-[(furan-2-yl)methyl]-7H-pyrrolo[2,3-d]pyrimidin-4-amine hydrochloride], the “EC2x for IKBKAP protein expression (concentration producing two times the amount of IKBKAP protein vs DMSO vehicle control)” value is “**** (between >0.005 μM and ≤0.02 μM is indicated by four stars (****))”; the “MFI (maximum fold increase in IKBKAP protein abundance relative to the vehicle control)” value was “**** (between >3.9 and ≤4.9 is indicated by four stars (****))”.
For `C[C@H](N)Cc1cc2c(NCc3ccncc3)nc(Cl)nc2[nH]1` [Cpd 20, 6-[(2S)-2-aminopropyl]-2-chloro-N-[(pyridin-4-yl)methyl]-7H-pyrrolo[2,3-d]pyrimidin-4-amine], the “EC2x for IKBKAP protein expression (concentration producing two times the amount of IKBKAP protein vs DMSO vehicle control)” value is “*** (between >0.02 μM and ≤0.5 μM is indicated by three stars (***))”; the “MFI (maximum fold increase in IKBKAP protein abundance relative to the vehicle control)” value is “***** (>4.9 is indicated by five stars (*****))”.
With `CC[C@H](N)Cc1[nH]c2nc(Cl)nc(NCc3ccco3)c2c1Cl.Cl` [Cpd 21, 6-[(2S)-2-aminobutyl]-2,5-dichloro-N-[(furan-2-yl)methyl]-7H-pyrrolo[2,3-d]pyrimidin-4-amine hydrochloride], the “EC2x for IKBKAP protein expression (concentration producing two times the amount of IKBKAP protein vs DMSO vehicle control)” value is “**** (between >0.005 μM and ≤0.02 μM is indicated by four stars (****))”; the “MFI (maximum fold increase in IKBKAP protein abundance relative to the vehicle control)” value is “**** (between >3.9 and ≤4.9 is indicated by four stars (****))”.
Consider `C[C@H](N)Cc1cc2c(NCc3nccs3)nc(Cl)nc2[nH]1.Cl` [Cpd 22, 6-[(2S)-2-aminopropyl]-2-chloro-N-[(1,3-thiazol-2-yl)methyl]-7H-pyrrolo[2,3-d]pyrimidin-4-amine hydrochloride], for which the “EC2x for IKBKAP protein expression (concentration producing two times the amount of IKBKAP protein vs DMSO vehicle control)” value is “**** (between >0.005 μM and ≤0.02 μM is indicated by four stars (****))”; the “MFI (maximum fold increase in IKBKAP protein abundance relative to the vehicle control)” value is reported as “***** (>4.9 is indicated by five stars (*****))”.
Turning to `C[C@H](N)Cc1c(Cl)c2c(NCc3ccco3)nc(Cl)nc2n1C.Cl` [Cpd 23, 6-[(2S)-2-aminopropyl]-2,5-dichloro-N-[(furan-2-yl)methyl]-7-methyl-7H-pyrrolo[2,3-d]pyrimidin-4-amine hydrochloride], the “EC2x for IKBKAP protein expression (concentration producing two times the amount of IKBKAP protein vs DMSO vehicle control)” value is “**** (between >0.005 μM and ≤0.02 μM is indicated by four stars (****))”; the “MFI (maximum fold increase in IKBKAP protein abundance relative to the vehicle control)” value was “***** (>4.9 is indicated by five stars (*****))”.
For `C[C@H](N)Cc1c(F)c2c(NCc3ccco3)nc(Cl)nc2n1C.Cl` [Cpd 24, 6-[(2S)-2-aminopropyl]-2-chloro-5-fluoro-N-[(furan-2-yl)methyl]-7-methyl-7H-pyrrolo[2,3-d]pyrimidin-4-amine hydrochloride], the “EC2x for IKBKAP protein expression (concentration producing two times the amount of IKBKAP protein vs DMSO vehicle control)” value is “**** (between >0.005 μM and ≤0.02 μM is indicated by four stars (****))”; the “MFI (maximum fold increase in IKBKAP protein abundance relative to the vehicle control)” value was “***** (>4.9 is indicated by five stars (*****))”.
For `C[C@H](N)Cc1cc2c(NCc3cccs3)nc(Cl)nc2[nH]1.Cl` [Cpd 25, 6-[(2S)-2-aminopropyl]-2-chloro-N-[(thiophen-2-yl)methyl]-7H-pyrrolo[2,3-d]pyrimidin-4-amine hydrochloride], the “EC2x for IKBKAP protein expression (concentration producing two times the amount of IKBKAP protein vs DMSO vehicle control)” value was “**** (between >0.005 μM and ≤0.02 μM is indicated by four stars (****))”; the “MFI (maximum fold increase in IKBKAP protein abundance relative to the vehicle control)” value was “***** (>4.9 is indicated by five stars (*****))”.
Consider `CC[C@H](N)Cc1cc2c(NCc3ccco3)nc(Cl)nc2[nH]1` [Cpd 26, 6-[(2S)-2-aminobutyl]-2-chloro-N-[(furan-2-yl)methyl]-7H-pyrrolo[2,3-d]pyrimidin-4-amine], for which the “EC2x for IKBKAP protein expression (concentration producing two times the amount of IKBKAP protein vs DMSO vehicle control)” value was “**** (between >0.005 μM and ≤0.02 μM is indicated by four stars (****))”; the “MFI (maximum fold increase in IKBKAP protein abundance relative to the vehicle control)” value was “**** (between >3.9 and ≤4.9 is indicated by four stars (****))”.
On to `C[C@H](N)Cc1cc2c(NCc3ncco3)nc(Cl)nc2[nH]1.Cl` [Cpd 27, 6-[(2S)-2-aminopropyl]-2-chloro-N-[(1,3-oxazol-2-yl)methyl]-7H-pyrrolo[2,3-d]pyrimidin-4-amine hydrochloride], for which the “EC2x for IKBKAP protein expression (concentration producing two times the amount of IKBKAP protein vs DMSO vehicle control)” value is “*** (between >0.02 μM and ≤0.5 μM is indicated by three stars (***))”; the “MFI (maximum fold increase in IKBKAP protein abundance relative to the vehicle control)” value is reported as “***** (>4.9 is indicated by five stars (*****))”.
As to `CCCCc1c(C[C@H](C)N)[nH]c2nc(Cl)nc(NCc3ccco3)c12.Cl` [Cpd 28, 6-[(2S)-2-aminopropyl]-5-butyl-2-chloro-N-[(furan-2-yl)methyl]-7H-pyrrolo[2,3-d]pyrimidin-4-amine hydrochloride], the “EC2x for IKBKAP protein expression (concentration producing two times the amount of IKBKAP protein vs DMSO vehicle control)” value is recorded as “* (An EC2x>1 μM is indicated by one star (*))” and the “MFI (maximum fold increase in IKBKAP protein abundance relative to the vehicle control)” value is listed as “* (An MFI≤1.9 is indicated by one star (*))”.
Regarding `CC(C)(C)[C@H](N)Cc1cc2c(NCc3ccco3)nc(Cl)nc2[nH]1.Cl` [Cpd 29, 6-[(2R)-2-amino-3,3-dimethylbutyl]-2-chloro-N-[(furan-2-yl)methyl]-7H-pyrrolo[2,3-d]pyrimidin-4-amine hydrochloride], the “EC2x for IKBKAP protein expression (concentration producing two times the amount of IKBKAP protein vs DMSO vehicle control)” value was “*** (between >0.02 μM and ≤0.5 μM is indicated by three stars (***))”; the “MFI (maximum fold increase in IKBKAP protein abundance relative to the vehicle control)” value was “**** (between >3.9 and ≤4.9 is indicated by four stars (****))”.
For `C[C@H](N)Cc1cc2c(NCc3ccoc3)nc(Cl)nc2[nH]1.Cl` [Cpd 30, 6-[(2S)-2-aminopropyl]-2-chloro-N-[(furan-3-yl)methyl]-7H-pyrrolo[2,3-d]pyrimidin-4-amine hydrochloride], the “EC2x for IKBKAP protein expression (concentration producing two times the amount of IKBKAP protein vs DMSO vehicle control)” value is “*** (between >0.02 μM and ≤0.5 μM is indicated by three stars (***))”; the “MFI (maximum fold increase in IKBKAP protein abundance relative to the vehicle control)” value is reported as “***** (>4.9 is indicated by five stars (*****))”.
With `C[C@H](N)Cc1cc2c(NCc3ccncc3F)nc(Cl)nc2[nH]1.Cl.Cl` [Cpd 31, 6-[(2S)-2-aminopropyl]-2-chloro-N-[(3-fluoropyridin-4-yl)methyl]-7H-pyrrolo[2,3-d]pyrimidin-4-amine dihydrochloride], the “EC2x for IKBKAP protein expression (concentration producing two times the amount of IKBKAP protein vs DMSO vehicle control)” value is “**** (between >0.005 μM and ≤0.02 μM is indicated by four stars (****))”; the “MFI (maximum fold increase in IKBKAP protein abundance relative to the vehicle control)” value is listed as “***** (>4.9 is indicated by five stars (*****))”.
Turning to `CC[C@H](C)[C@H](N)Cc1cc2c(NCc3ccco3)nc(Cl)nc2[nH]1.Cl` [Cpd 32, 6-[(2R,3S)-2-amino-3-methylpentyl]-2-chloro-N-[(furan-2-yl)methyl]-7H-pyrrolo[2,3-d]pyrimidin-4-amine hydrochloride], the “EC2x for IKBKAP protein expression (concentration producing two times the amount of IKBKAP protein vs DMSO vehicle control)” value is “**** (between >0.005 μM and ≤0.02 μM is indicated by four stars (****))”; the “MFI (maximum fold increase in IKBKAP protein abundance relative to the vehicle control)” value was “***** (>4.9 is indicated by five stars (*****))”.
Regarding `Cc1c(C[C@H](C)N)[nH]c2nc(Cl)nc(NCc3ccco3)c12.Cl` [Cpd 33, 6-[(2S)-2-aminopropyl]-2-chloro-N-[(furan-2-yl)methyl]-5-methyl-7H-pyrrolo[2,3-d]pyrimidin-4-amine hydrochloride], the “EC2x for IKBKAP protein expression (concentration producing two times the amount of IKBKAP protein vs DMSO vehicle control)” value is given as “***** (≤0.005 μM is indicated by five stars (*****))” and the “MFI (maximum fold increase in IKBKAP protein abundance relative to the vehicle control)” value was “***** (>4.9 is indicated by five stars (*****))”.
